Counter-ions that a name gives are not always drawn. Like-named read-outs stand apart in the source and are kept apart here.
Legend:
[1] = tested on: CD11a surface expression on huMSCs; assay: Medium throughput screen: CD11a surface expression on MSCs, PE-CY5 anti-CD11a antibody, laser-scanning fluorescence microplate cytometer; assay type: cell-based, human; design: key to Cell surface ligand CD11a (induction of expression): NA = negative activity result; A = positive activity result; conditions: for EC50: read-out: Cell Surface Marker ED 50 (M) Molar Concentration of Compound for CD11a Expression
Experimental: An in vitro screen was performed for compounds that induce surface expression on huMSCs of the marker CD11a (LFA-1). This screen may be considered a medium throughput screen. Certain compounds that induce the increase of this surface marker were then selected for testing in an in vitro firm adhesion assay and/or in vivo systemic administration in an animal model of inflammation. The surface expression screen involved fluorophore-conjugated antibodies to the respective markers. Following pretreatment with the test compounds, samples of cells were incubated with the labeled antibodies for detection of surface marker expression and change relative to a reference level of untreated cells or negative control samples or values. Cells were pretreated with a concentration (3 μM) of each small molecule compound for 24 hours, followed by incubation with a fluorophore-conjugated anti-marker antibody to detect expression on MSC surface. Surface expression levels of marker ligands were then evaluated by laser-scanning fluorescence microplate cytometer. […] Cell viability in response to compounds was also tested to assess whether molecules have toxicity after 24 hours of pretreatment. Testing was performed on two different huMSC sources representing cells from different donors.
Further details of the screening approach are provided as follows. A unique single batch of bone marrow-derived MSC cells was prepared for the entire screening campaign by cell amplification using CellStack flasks and freezing in separate vials at passage P5. […] For each run, vials were thawed and cells directly seeded on 384-well plates at 3,000 cells per well in MSCGM medium. Following an overnight incubation, cells were treated with the indicated concentrations of compounds for 24 hours. Cells were washed in PBS, 3% BSA and incubated for one hour with PE-CY5-conjugated anti-CD11a monoclonal antibody (clone HI111). Expression of CD11a at the cell surface was detected using the Acumen Explorer, a laser-scanning fluorescence microplate cytometer after two PBS washings. HL-60 cells seeded at 10,000 cells per well and treated with 100 nM phorbol 12-myristate 13-acetate (PMA) for 24 h to induce cell adhesion were used as a positive control in each 384-well plate. Positive compounds were counter-screened for their auto-fluorescence by measuring the signal in the absence of antibody.
A single batch of bone marrow-derived MSC was prepared for the entire screening campaign by cell amplification using CellStack flasks and freezing in separate vials at passage P5. […] For each run, vials were thawed and cells directly seeded on 384-well plates at 3,000 cells per well in MSCGM medium. Following an overnight incubation, cells were pretreated with a low (0.1 μM) and high (3 μM) concentration of the compounds for 24 h. 9,000 cpds were tested in 112 assay plates, each 384-well plate contained 320 cpds (from column 5 to 24), one column for Max (Column2, HL60 cells) and one column for Min (Column4, MSC cells). Cells were washed in PBS, 3% BSA and incubated for one hour with PE-CY5-conjugated anti-CD11a monoclonal Ab (BD Biosciences). Expression of CD11a at the cell surface was detected after two PBS washes using the Acumen Explorer equipment, a laser-scanning fluorescence microplate cytometer. HL-60 cells (seeded at 10,000 cells per well and treated with 100 nM phorbol 12-myristate 13-acetate (PMA) for 24 h to induce cell adhesion) were used as a positive control in each 384-well plate. Positive compounds were counter-screened for their auto-fluorescence by measuring the signal in the absence of Ab. Shown in FIG. 4 is the global screening data. Using the Max, Min columns, we have calculated Max/Min ratio generated with CD11a Ab for each assay plate (signal/background ration in green columns was calculated for each of the 112 assay plates). […]

[2] = tested on: human mesenchymal stem cells; assay: In vitro functional firm adhesion assay of cells (Table 3, coating not stated); assay type: cell-based; design: key to Result, in vitro Firm Adhesion: NA = negative activity result; A = positive activity result; conditions: for Firm adhesion, Percent increase: relative to untreated and/or negative control MSCs
Experimental: (§1) Cell adhesion experiments were performed using Bioflux1000 (FluxionBio), allowing accurate control over shear flow. A special 48-well plate was used, in which a microfluidic channel (350 μm×70 μm) connects each pair of adjacent wells (termed inlet and outlet wells). The plate was placed under vacuum and the channels were coated from the inlet with recombinant human E-selectin (5 μg/mL) or ICAM-1 (5 μg/mL) and incubated at 37° C. for 1 h. Prior to introducing the cells into the channel, a wash with PBS−/− from the outlet well was performed for 5 min. Compound-pretreated MSCs were introduced into the channel, followed by attachment period of 2 minutes (no flow applied during the attachment period). Attached cells were then subjected to increasing shear flow, ranging from 0.25 dynes/cm^2 for up to 10 dynes/cm^2. Images were acquired using the Montage software and cell adhesion to the coated channels following subjection to shear flow was examined. See also disclosure elsewhere herein.
(§2) 1. Obtain preferred channel coating (protein/cell monolayer). 2. Prepare cell suspension (same concentrations detailed above for different cell types). 3. Add 50 μl of cell suspension to outlet well. 4. Introduce cells into channel by applying shear force of 2 dynes/cm^2 (cells should be observed within 10-15 sec flowing from outlet to inlet). 5. Once cells are observed in the channel, stop the flow and allow the introduced cells to sit for different time periods ranging from 30 seconds to 5 minutes. 6. Following this settling period, apply shear force starting from 0.5 dynes/cm^2 up to 10 dynes/cm^2 and acquire videos using stream acquisition. 7. Cell quantification is then performed using the Montage software—percentage of cells adhered, rolled or washed away after applying shear flow should be quantified.

[3] = tested on: MSC firm adhesion to E-selectin-coated surface; assay: E-selectin firm adhesion assay under shear flow, with antibody blocking; assay type: cell-based, human; conditions: 3 μM for 24 h
Experimental: as §1
Pre-confluent MSCs were incubated for 24 hours with the indicated small molecules (3 μM). MSCs were than detached, washed and incubated for 30 minutes with an antibody reagent. The following antibodies are used: anti-human CD11a (clone: HI111), anti-human CD90 (clone: MAB2067), mouse anti-human CD11a (clone: TS1/22), and mouse IgG1 isotype control. Cells were then introduced into the channel and given 2 minutes to adhere before being subjected to increasing shear flow for a firm adhesion assay on a microfluidic channel coated with E-selectin or ICAM-1.
as §2

| EC50 ([1]; Homo sapiens, pretreatment of huMSCs) [M] | EC50 ([1]; pretreatment of huMSCs, hydrochloride) [M] | SMILES | CD11a surface expression on MSCs, result in words ([1]; 24 h pretreatment) | Firm adhesion, Percent increase [2] [%] | Effect of antibody blocking of CD11a or CD90 on firm adhesion ([3]; E-selectin) | MSC firm adhesion to E-selectin-coated substrates, result in words ([3]; vs vehicle-treated MSCs) | CD11a surface expression on MSCs compared to HL-60 cells ([1]; 24 h pretreatment) | Cell surface ligand CD11a (induction of expression) ([1]; pretreatment of huMSCs) | Result, in vitro Firm Adhesion ([2]; pretreated huMSCs) | Firm adhesion, Percent increase ([2]; hydrochloride) [%] | Adhered cells on E-selectin-coated surface before CD11a blocking [3] [%] | Firm adhesion to E-selectin of pretreated MSC compared to control MSCs [3] [fold] | Adhered cells on E-selectin-coated surface following CD11a blocking ([3]; CD11a blocking antibody 30 minutes) [%] | Effect of antibody blocking of CD90 on firm adhesion ([3]; E-selectin) |
| --- | --- | --- | --- | --- | --- | --- | --- | --- | --- | --- | --- | --- | --- | --- |
| > 3e-05 | – | CCc1c2c(nc3ccc(OC(=O)N4CCC(N5CCCCC5)CC4)cc13)-c1cc3c(c(=O)n1C2)COC(=O)[C@]3(O)CC [Compound 1927, reference compound] | did not increase | 22 | no effect | did not improve | – | – | – | – | – | – | – | – |
| – | 8e-07 | Cn1cc(C2=C(c3c4n(c5ccccc35)CCC(CN)C4)C(=O)NC2=O)c2ccccc21 (stereo not drawn) [Compound 1929, 3-(8-aminomethyl-6,7,8,9-tetrahydro-pyrido[1,2-a]indol-10-yl)-4-(1-methyl-1H-indol-3-yl)-pyrrole-2,5-dione hydrochloride] | significant increase | – | – | – | two-fold higher | A | A | 88 | ~90 | 3 | 50 | no effect |
